The values that follow are results of earlier work, collected in article PMC8477420 (ChemMedChem, 2020).

SMILES strings stand for the structures.

One series deals with OCI-AML-3 cells. As to conditions: monotherapy.
For another series, the system named is OCI-AML-2 cells. As to conditions: monotherapy.
For another series, the system named is MOLM-13 cells. As to conditions: monotherapy.

One may read the viability as the share of living cells, or the viability signal relative to a control. `Cc1c(-c2c(-c3ccc(F)o3)sc3ncnc(O[C@H](Cc4ccccc4OCc4ccnn4CC(F)(F)F)C(=O)O)c23)ccc(OCCN2CCN(C)CC2)c1Cl` [Compound S63845]: the viability was 60–70% in the series on OCI-AML-3 cells, 95% in the series with OCI-AML-2 cells and 60–70% in the series with MOLM-13 cells.
Take `COc1ncc(-c2nc3c(n2C(C)C)[C@H](c2ccc(Cl)cc2)N(c2cc(Cl)cn(C)c2=O)C3=O)c(OC)n1` [HDM201]: the values for the viability result in the series with OCI-AML-3 cells, in the series on OCI-AML-2 cells and in the series on MOLM-13 cells were “no reduction”, 80% and 80%, respectively.
Consider `COc1ccc(C2=N[C@@H](c3ccc(Cl)cc3)[C@@H](c3ccc(Cl)cc3)N2C(=O)N2CCNC(=O)C2)c(OC(C)C)c1` [Nutlin-3a], for which the “inhibition of Bcl-2” value with Bcl-2 is “low micromolar inhibition”.
